Among the test systems are SNB-75; SNB-19; HOP-62; SK-MEL-28; BT-549; Malme-3M; NCI-H522; CAKI-1; UACC-62; OVCAR-4; HT-29; MDA-MB-231; MDA-N; TK-10; UACC-257; COLO 205; NCI-H23; SF-295; RPMI-8226; HOP-92.
What all share (assay): inhibition of tumour cell growth, NCI panel, 48 h

The structures appear in SMILES notation.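 Step 1: Grow cells in 96-well plates. Step 2: Expose to compound for 48 hours at 5 concentrations. Step 3: Interpolate endpoints linearly; if unreached, use highest concentration. Abbreviation: GI50, concentration required for 50% inhibition of growth.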 The source made the active and inactive calls. Cut-off read from the data, not from the text of the source: active = GI50 up to about 1.1 µM and inactive = higher. Bounds are passed on as bounds.

These results are taken from ChEMBL document CHEMBL1201862, “PubChem BioAssay data set” (2004).

Regarding `N=C(N)NC(=N)Nc1ccccc1.Sc1nc2ccccc2s1`, the GI50 in the test with SNB-75, in the test with SNB-19, in the test with HOP-62, in the test with SK-MEL-28, with BT-549 and in the test on Malme-3M was > 100 µM (inactive) in each case. Moreover, the GI50 in the test with NCI-H522 is 53.8 µM (inactive); in the test on CAKI-1, > 100 µM (inactive); in the test with UACC-62 it was > 100 µM (inactive); in the test with OVCAR-4, > 100 µM (inactive); with HT-29 it was > 100 µM (inactive); in the test with MDA-MB-231, > 100 µM (inactive). For the same molecule, the GI50 in the test with MDA-N, in the test with TK-10, in the test with UACC-257, with COLO 205, in the test with NCI-H23 and in the test on SF-295 was > 100 µM (inactive) each time.
For `COc1cc(C2c3cc(O)c(OC)cc3C3OCC2C3CO)ccc1O` (centres undefined), the GI50 with SNB-75, with SNB-19, in the test with RPMI-8226, in the test with HOP-62, in the test on SK-MEL-28 and in the test with BT-549 was > 100 µM (inactive) each time. Moreover, the GI50 in the test on Malme-3M, in the test on NCI-H522, with CAKI-1, in the test with UACC-62, in the test with OVCAR-4 and in the test with HT-29 was > 100 µM (inactive) throughout. The GI50 was > 100 µM (inactive) with MDA-MB-231; > 100 µM (inactive) with TK-10; > 100 µM (inactive) in the test with COLO 205; 7.6 µM (inactive) in the test with HOP-92; > 100 µM (inactive) with NCI-H23; > 100 µM (inactive) with SF-295.
In the case of `O=C1CSC(c2cccc(Oc3ccccc3)c2)N1c1ccc(Cl)cc1` (centres undefined), the GI50 in the test with SNB-75 is 28 µM (inactive); in the test on SNB-19 it was 54.8 µM (inactive); in the test on HOP-62 it was 57 µM (inactive); with SK-MEL-28, 41.2 µM (inactive); in the test on BT-549, 27.7 µM (inactive); in the test on Malme-3M it was 20.4 µM (inactive). Also, the GI50 in the test on NCI-H522 is 16.3 µM (inactive); with CAKI-1, 17.9 µM (inactive); with UACC-62, 10.8 µM (inactive); with OVCAR-4 it was 26.2 µM (inactive); with HT-29, 37.8 µM (inactive); with MDA-MB-231 it was 27.4 µM (inactive). Moreover, the GI50 is 19.4 µM (inactive) in the test on MDA-N; 22.4 µM (inactive) in the test on TK-10; 17.4 µM (inactive) in the test with UACC-257; 18.5 µM (inactive) in the test on COLO 205; 13.4 µM (inactive) in the test with HOP-92; 25.5 µM (inactive) in the test on NCI-H23. Besides, the GI50 in the test with SF-295 is 31 µM (inactive).
Take `O=C1OC2(c3ccccc31)c1cc(I)c(O)c(I)c1Oc1c2cc(I)c(O)c1I` [ERYTHROSINE]: the GI50 is > 100 µM (inactive) in the test on SNB-75; > 100 µM (inactive) in the test with SNB-19; > 100 µM (inactive) in the test on RPMI-8226; > 100 µM (inactive) in the test on HOP-62; > 100 µM (inactive) with SK-MEL-28; 45.8 µM (inactive) in the test on BT-549. Moreover, the GI50 in the test on Malme-3M was 64.1 µM (inactive); in the test with NCI-H522 it was 19.3 µM (inactive); in the test with CAKI-1 it was 14.6 µM (inactive); in the test on UACC-62 it was 75.9 µM (inactive); in the test on OVCAR-4, > 100 µM (inactive); with HT-29 it was > 100 µM (inactive). Further, the GI50 in the test with MDA-MB-231 is > 100 µM (inactive); in the test with TK-10, > 100 µM (inactive); with UACC-257, > 100 µM (inactive); with COLO 205 it was > 100 µM (inactive); with HOP-92, > 100 µM (inactive); in the test on NCI-H23, 70 µM (inactive). The GI50 in the test with SF-295 was > 100 µM (inactive).
With `CCCCCCCCCc1cccc(N2C(N)=NC(N)=NC2(C)C)c1`, the GI50 in the test with SNB-75 is 0.735 µM (active); in the test on RPMI-8226, 0.0112 µM (active); with HOP-62, < 0.0237 µM (active); in the test on SK-MEL-28 it was 0.871 µM (active); with BT-549, 1 µM (active); with Malme-3M, 0.104 µM (active). The GI50 in the test on NCI-H522 is 0.0451 µM (active); with CAKI-1 it was 0.293 µM (active); in the test on UACC-62 it was < 0.01 µM (active); in the test with OVCAR-4, < 0.01 µM (active); in the test on HT-29 it was < 0.01 µM (active); in the test on MDA-MB-231, 0.302 µM (active). In addition, the GI50 is 0.0304 µM (active) in the test with TK-10; 0.0611 µM (active) in the test on UACC-257; 0.0209 µM (active) in the test on COLO 205; 1.58 µM (inactive) with HOP-92; < 0.01 µM (active) in the test on NCI-H23; 0.0148 µM (active) in the test with SF-295.
Regarding `C/C=C\C(CC(=O)NCCC1CN(S(=O)(=O)C(F)(F)F)c2ccccc21)CC(=O)OC` (centres undefined), the GI50 with SNB-19 was 44.7 µM (inactive); in the test with RPMI-8226, 31.8 µM (inactive); with HOP-62, 35.2 µM (inactive); in the test on SK-MEL-28, 43.3 µM (inactive); in the test with BT-549, 27.4 µM (inactive); with Malme-3M, 15.9 µM (inactive). Further, the GI50 is 18.3 µM (inactive) in the test with NCI-H522; 56.6 µM (inactive) in the test on CAKI-1; 34.1 µM (inactive) with UACC-62; 63.5 µM (inactive) in the test with OVCAR-4; 21.8 µM (inactive) with HT-29; 50.8 µM (inactive) in the test on MDA-MB-231. Further, the GI50 in the test with MDA-N is 40 µM (inactive); in the test with UACC-257, 48.2 µM (inactive); in the test on COLO 205, 24.8 µM (inactive); in the test on HOP-92, 23.9 µM (inactive); with NCI-H23, 34.7 µM (inactive); with SF-295, 42.4 µM (inactive).
For `COC(=O)c1ccccc1NCc1cc(O)ccc1O`, the GI50 in the test with SNB-75 is 28.8 µM (inactive); in the test on SNB-19 it was 39 µM (inactive); with RPMI-8226 it was 10.5 µM (inactive); in the test on HOP-62, 28.6 µM (inactive); with SK-MEL-28, 19.1 µM (inactive); in the test on BT-549, 2.71 µM (inactive). Also, the GI50 is 21.4 µM (inactive) with Malme-3M; 2.63 µM (inactive) in the test with NCI-H522; 19.4 µM (inactive) in the test on CAKI-1; 18.2 µM (inactive) with UACC-62; 17.9 µM (inactive) in the test on OVCAR-4; 21.8 µM (inactive) with HT-29. In addition, the GI50 in the test with MDA-N is 16.4 µM (inactive); with TK-10, 26.1 µM (inactive); with UACC-257, 15.6 µM (inactive); in the test on COLO 205, 19.4 µM (inactive); in the test with HOP-92 it was 17.7 µM (inactive); with NCI-H23 it was 32.9 µM (inactive). The GI50 in the test on SF-295 was 17.9 µM (inactive).
As for `O=Cc1ccc(-c2ccc(S(=O)(=O)O)cc2)o1`, the GI50 with SNB-19, in the test on RPMI-8226, in the test with SK-MEL-28, with BT-549, with Malme-3M and in the test on NCI-H522 was > 100 µM (inactive) throughout. The GI50 in the test on CAKI-1, with UACC-62, in the test with HT-29, in the test on MDA-MB-231, with MDA-N and with TK-10 was > 100 µM (inactive) each time. Also, the GI50 with UACC-257, in the test on COLO 205, with NCI-H23 and with SF-295 was > 100 µM (inactive) throughout.
For `COc1ccc(OC)c2c(/C=C/c3ccc(N(C)C)cc3)ccnc12`, the GI50 is 6.53 µM (inactive) in the test with SNB-75; > 10 µM (inactive) in the test on SNB-19; > 10 µM (inactive) in the test on HOP-62; 3.3 µM (inactive) with SK-MEL-28; > 10 µM (inactive) in the test on BT-549; 4.51 µM (inactive) in the test on Malme-3M. The GI50 in the test on NCI-H522 was 8.02 µM (inactive); in the test with CAKI-1, > 10 µM (inactive); in the test with UACC-62 it was 3.01 µM (inactive); in the test on OVCAR-4, 4.32 µM (inactive); in the test with HT-29, 4.11 µM (inactive); with MDA-MB-231, 8.34 µM (inactive). Moreover, the GI50 was 5.24 µM (inactive) with MDA-N; 5.58 µM (inactive) in the test on TK-10; 4 µM (inactive) in the test on UACC-257; > 10 µM (inactive) with COLO 205; 5.87 µM (inactive) in the test with HOP-92; > 10 µM (inactive) in the test with NCI-H23. Also, in the test with SF-295, the GI50 was > 10 µM (inactive).
With `COC(=O)/C=C\[C@H]1[C@H](C)N1S(=O)(=O)c1ccc(C)cc1` (some centres undefined), the GI50 in the test with SNB-19, with RPMI-8226, with HOP-62, with SK-MEL-28, with BT-549 and in the test on Malme-3M was > 100 µM (inactive) in each case. The GI50 with NCI-H522 is 20.4 µM (inactive); with CAKI-1, > 100 µM (inactive); with UACC-62, > 100 µM (inactive); with OVCAR-4 it was > 100 µM (inactive); in the test with HT-29, > 100 µM (inactive); in the test on MDA-MB-231, > 100 µM (inactive). Besides, the GI50 in the test on MDA-N, in the test with TK-10, with UACC-257, in the test with COLO 205, in the test with NCI-H23 and in the test with SF-295 was > 100 µM (inactive) throughout.
As for `COCC1OC(S(=O)(=O)c2ccccc2)C(O)C(OC)C1OC` (centres undefined), the GI50 in the test on SNB-19, with HOP-62, in the test on SK-MEL-28, in the test on BT-549, in the test on Malme-3M and in the test on NCI-H522 was > 100 µM (inactive) in each case. The GI50 with CAKI-1, in the test on UACC-62, in the test with OVCAR-4, in the test on HT-29, with MDA-MB-231 and with MDA-N was > 100 µM (inactive) in each case. In addition, the GI50 in the test on TK-10, with UACC-257, in the test on COLO 205, in the test on NCI-H23 and in the test on SF-295 was > 100 µM (inactive) throughout.
